Target: T1, hTRPC3 (Homo sapiens, UniProt Q13507)
T1 construct: expressed in transfected cells
T1 sequence (Q13507 1-848 isoform Q13507-3): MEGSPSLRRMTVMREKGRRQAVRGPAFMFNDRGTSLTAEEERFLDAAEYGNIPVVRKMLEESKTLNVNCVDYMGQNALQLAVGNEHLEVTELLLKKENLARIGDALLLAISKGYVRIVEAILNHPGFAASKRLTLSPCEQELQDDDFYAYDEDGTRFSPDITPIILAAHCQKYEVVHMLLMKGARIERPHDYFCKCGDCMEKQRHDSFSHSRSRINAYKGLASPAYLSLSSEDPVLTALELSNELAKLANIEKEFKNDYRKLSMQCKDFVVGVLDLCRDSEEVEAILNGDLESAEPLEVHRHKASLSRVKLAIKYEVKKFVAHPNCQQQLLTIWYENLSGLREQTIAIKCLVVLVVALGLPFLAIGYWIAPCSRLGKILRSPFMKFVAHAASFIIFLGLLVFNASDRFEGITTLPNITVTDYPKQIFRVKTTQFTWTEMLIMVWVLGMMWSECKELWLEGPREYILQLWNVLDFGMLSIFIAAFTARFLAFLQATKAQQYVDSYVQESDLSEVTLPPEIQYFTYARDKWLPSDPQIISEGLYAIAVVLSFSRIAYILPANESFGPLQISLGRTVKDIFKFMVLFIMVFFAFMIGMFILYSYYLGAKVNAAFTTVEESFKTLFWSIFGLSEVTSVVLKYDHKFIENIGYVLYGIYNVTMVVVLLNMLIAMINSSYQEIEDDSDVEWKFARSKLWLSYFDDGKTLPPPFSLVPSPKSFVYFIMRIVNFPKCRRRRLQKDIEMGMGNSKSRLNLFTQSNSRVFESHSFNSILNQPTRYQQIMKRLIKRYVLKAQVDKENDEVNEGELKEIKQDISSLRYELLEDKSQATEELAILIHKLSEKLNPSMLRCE
Experiment: Whole-cell patch clamp, AlF4- evoked TRPC3 currents
Assay type: cell-based
Conditions: 10 µM, AlF4- infusion
Text: hTRPC3 (GenBank accession number NM_003305) was stably expressed in chinese hamster ovary (CHO) cells using a proprietary high expression vector (Steinbeis –Transferzentrum für Angewandte Biologische Chemie, Mannheim, Germany).
The whole-cell patch clamp technique was employed to measure ion currents from single cells. Heat-polished patch pipettes with resistances of 2–4 MΩ were pulled from borosilicate glass capillaries (Hilgenberg, Malsfeld, Germany) using a DMZ-Universal puller (Zeitz-Instruments, Munich, Germany) and filled with standard intracellular solution containing: 120 mM CsOH, 120 mM gluconic acid, 2 mM MgCl2, 3 mM CaCl2, 5 mM Cs4-BAPTA, 10 mM HEPES (pH 7.4 adjusted with gluconic acid). For agonist-independent stimulation of TRPC currents the intracellular solution was supplemented with 30 µM AlCl3 and 10 mM NaF and cells were infused with AlF4 ^− through the patch pipette. […]
Cells grown on poly-L-lysine-coated coverslips were continuously superfused with extracellular solution and substances were applied using an ALA BPS-8 perfusion system (ALA Scientific Instruments, Westbury, USA). […] Cells were held at −70 mV, and current-voltage (I–V) relationships were routinely measured every 2 or 3 s by applying voltage ramps (180 ms) from −100 mV to +80 mV. […]

Inhibition of TRPC3 currents: almost completely inhibited
SMILES: C#C[C@]1(OC(C)=O)CC[C@H]2[C@@H]3CCC4=CC(=NO)CC[C@@H]4[C@H]3CC[C@@]21CC (mixture of isomers) [norgestimate]
